{"source": "paper PMC11289166", "about": "(Biochemistry, 2024)", "key": {"CRYΔ (residues 1-520)": {"target": "CRYΔ (residues 1-520) (Drosophila melanogaster, UniProt O77059)", "sequence (O77059 1-520, stated change not applied)": "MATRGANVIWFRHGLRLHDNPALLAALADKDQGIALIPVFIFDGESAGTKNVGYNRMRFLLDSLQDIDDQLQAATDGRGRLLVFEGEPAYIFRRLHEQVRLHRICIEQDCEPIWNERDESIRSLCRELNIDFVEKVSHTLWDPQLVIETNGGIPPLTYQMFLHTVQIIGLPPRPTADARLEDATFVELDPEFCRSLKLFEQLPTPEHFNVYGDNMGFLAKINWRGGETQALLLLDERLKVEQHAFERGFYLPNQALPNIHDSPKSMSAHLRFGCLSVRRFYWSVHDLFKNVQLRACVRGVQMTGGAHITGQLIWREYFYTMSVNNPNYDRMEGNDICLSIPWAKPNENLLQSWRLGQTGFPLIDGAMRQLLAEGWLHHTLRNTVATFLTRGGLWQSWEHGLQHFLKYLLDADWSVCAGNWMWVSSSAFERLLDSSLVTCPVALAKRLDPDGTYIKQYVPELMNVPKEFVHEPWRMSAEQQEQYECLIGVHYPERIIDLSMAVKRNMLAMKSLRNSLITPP", "type": "binding", "conditions": "fluorescence polarization; dark and light"}, "[1]": {"target": "CRY Full-Length (residues 1-539) (Drosophila melanogaster, UniProt O77059)", "sequence (O77059 1-539)": "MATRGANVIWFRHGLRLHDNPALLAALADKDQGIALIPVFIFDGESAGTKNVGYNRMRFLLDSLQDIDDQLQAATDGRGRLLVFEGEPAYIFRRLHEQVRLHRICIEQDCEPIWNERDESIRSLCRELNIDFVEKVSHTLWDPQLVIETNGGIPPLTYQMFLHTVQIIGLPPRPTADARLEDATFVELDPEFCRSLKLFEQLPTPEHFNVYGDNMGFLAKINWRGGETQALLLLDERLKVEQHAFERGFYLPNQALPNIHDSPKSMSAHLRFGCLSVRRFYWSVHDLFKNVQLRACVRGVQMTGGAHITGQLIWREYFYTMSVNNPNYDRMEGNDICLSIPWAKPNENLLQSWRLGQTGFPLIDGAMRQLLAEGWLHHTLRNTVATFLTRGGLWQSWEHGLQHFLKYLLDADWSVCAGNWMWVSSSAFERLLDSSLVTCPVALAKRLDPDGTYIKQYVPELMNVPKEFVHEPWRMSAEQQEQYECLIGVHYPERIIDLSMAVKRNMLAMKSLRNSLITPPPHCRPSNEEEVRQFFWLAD", "type": "binding", "conditions": "fluorescence polarization; dark and light"}, "CRY Arg237Ala": {"target": "CRY Arg237Ala (Drosophila melanogaster, UniProt O77059, R237A)", "sequence (O77059 1-539 R237A)": "as the sequence (O77059 1-539) above, with R237A counted along it", "type": "binding", "conditions": "fluorescence polarization; dark and light"}, "CRY Asn253Ala/Gln254Ala [2]": {"target": "T1, CRY Asn253Ala/Gln254Ala (Drosophila melanogaster, UniProt O77059, N253A/Q254A)", "T1 sequence (O77059 1-539 N253A/Q254A)": "as the sequence (O77059 1-539) above, with N253A, Q254A counted along it", "type": "binding", "conditions": "fluorescence polarization; dark and light"}, "CRY Asn253Ala/Gln254Ala [3]": {"target": "T1, CRY Asn253Ala/Gln254Ala", "conditions": "DEER; light state and dark-state proxy; compared with WT CRYΔ"}, "CRYΔ": {"system": "CRYΔ", "conditions": "ref [20]-[22]; cited from earlier work"}}, "note": "“Also recorded” adds a separate entry of the source. Ends that are not written are not given here. * marks the point of attachment. MTSL = nitroxide spin label, CC1(C)C=C(CS*)C(C)(C)N1[O]", "data": [{"molecule": "MDWLLATPQLYSAFSSLGC [S-TIMN]", "values": [{"measurement": "binding to CRYΔ (in words)", "setting": "CRYΔ (residues 1-520)", "value": "bound S-TIMN in both dark and light, but with somewhat higher affinity in the light; also recorded: reasonably high affinity in the dark and even tighter affinity in the light; also recorded: more strongly in light than dark"}, {"measurement": "binding to full-length CRY (in words)", "setting": "[1]", "value": "bound to full-length CRY (residues 1-539) only in light with an affinity similar to that seen for CRYΔ in light"}, {"measurement": "binding to Arg237Ala (in words)", "setting": "CRY Arg237Ala", "value": "no detectable binding of S-TIMN in either dark or light; also recorded: does not bind to CRY in either dark or light"}, {"measurement": "binding to Asn253Ala/Gln254Ala (in words)", "setting": "CRY Asn253Ala/Gln254Ala [2]", "value": "bound both in dark and light, with stronger binding and a larger fraction of binding in the dark"}]}, {"molecule": "S-TIMN-SL: S-TIMN spin-labeled with MTSL (MDWLLATPQLYSAFSSLGC(MTSL))", "values": [{"measurement": "interaction of spin-labeled S-TIMN with Asn253Ala/Gln254Ala (in words)", "setting": "CRY Asn253Ala/Gln254Ala [3]", "value": "considerably different than that observed for WT CRYΔ"}]}, {"molecule": "full-length TIM: Drosophila core oscillator protein Timeless (protein, UniProt P49021 1-1398, looked up, full-length) MDWLLATPQLYSAFSSLGCLEGDTYVVNPNALAILEEINYKLTYEDQTLRTFRRAIGFGQNVRSDLIPLLENAKDDAVLESVIRILVNLTVPVECLFSVDVMYRTDVGRHTIFELNKLLYTSKEAFTEARSTKSVVEYMKHILESDPKLSPHKCDQINNCLLLLRNILHIPETHAHCVMPMMQSMPHGISMQNTILWNLFIQSIDKLLLYLMTCPQRAFWGVTMVQLIALIYKDQHVSTLQKLLSLWFEASLSESSEDNESNTSPPKQGSGDSSPMLTSDPTSDSSDNGSNGRGMGGGMREGTAATLQEVSRKGQEYQNAMARVPADKPDGSEEASDMTGNDSEQPGSPEQSQPAGESMDDGDYEDQRHRQLNEHGEEDEDEDEVEEEEYLQLGPASEPLNLTQQPADKVNNTTNPTSSAPQGCLGNEPFKPPPPLPVRASTSAHAQMQKFNESSYASHVSAVKLGQKSPHAGQLQLTKGKCCPQKRECPSSQSELSDCGYGTQVENQESISTSSNDDDGPQGKPQHQKPPCNTKPRNKPRTIMSPMDKKELRRKKLVKRSKSSLINMKGLVQHTPTDDDISNLLKEFTVDFLLKGYSYLVEELHMQLLSNAKVPIDTSHFFWLVTYFLKFAAQLELDMEHIDTILTYDVLSYLTYEGVSLCEQLELNARQEGSDLKPYLRRMHLVVTAIREFLQAIDTYNKVTHLNEDDKAHLRQLQLQISEMSDLRCLFVLLLRRFNPSIHSKQYLQDLVVTNHILLLILDSSAKLGGCQTIRLSEHITQFATLEVMHYYGILLEDFNNNGEFVNDCIFTMMHHIGGDLGQIGVLFQPIILKTYSRIWEADYELCDDWSDLIEYVIHKFMNTPPKSPLTIPTTSLTEMTKEHNQEHTVCSWSQEEMDTLYWYYVQSKKNNDIVGKIVKLFSNNGNKLKTRISIIQQLLQQDIITLLEYDDLMKFEDAEYQRTLLTTPTSATTESGIEIKECAYGKPSDDVQILLDLIIKENKAQHLLWLQRILIECCFVKLTLRSGLKVPEGDHIMEPVAYHCICKQKSIPVVQWNNEQSTTMLYQPFVLLLHKLGIQLPADAGSIFARIPDYWTPETMYGLAKKLGPLDKLNLKFDASELEDATASSPSRYHHTGPRNSLSSVSSLDVDLGDTEELALIPEVDAAVEKAHAMASTPSPSEIFAVPKTKHCNSIIRYTPDPTPPVPNWLQLVMRSKCNHRTGPSGDPSDCIGSSSTTVDDEGFGKSISAATSQAASTSMSTVNPTTTLSLNMLNTFMGSHNENSSSSGCGGTVSSLSMVALMSTGAAGGGGNTSGLEMDVDASMKSSFERLEVNGSHFSRANNLDQEYSAMVASVYEKEKELNSDNVSLASDLTRMYVSDEDDRLERTEIRVPHYH", "values": [{"measurement": "binding of TIM to CRYΔ (in words)", "setting": "CRYΔ", "value": "binds TIM in both dark and light"}]}]}
